Biological target: K. pneumoniae FtsZ (KpFtsZ) (Klebsiella pneumoniae, UniProt A0A0H3GRR0)
Test: fluorescence anisotropy titration of intrinsically fluorescent RUP4 ([…]) with purified KpFtsZ, […] °C, […] fit
Assay type: binding

Chain of K. pneumoniae FtsZ (KpFtsZ) (A0A0H3GRR0 entry or part of it): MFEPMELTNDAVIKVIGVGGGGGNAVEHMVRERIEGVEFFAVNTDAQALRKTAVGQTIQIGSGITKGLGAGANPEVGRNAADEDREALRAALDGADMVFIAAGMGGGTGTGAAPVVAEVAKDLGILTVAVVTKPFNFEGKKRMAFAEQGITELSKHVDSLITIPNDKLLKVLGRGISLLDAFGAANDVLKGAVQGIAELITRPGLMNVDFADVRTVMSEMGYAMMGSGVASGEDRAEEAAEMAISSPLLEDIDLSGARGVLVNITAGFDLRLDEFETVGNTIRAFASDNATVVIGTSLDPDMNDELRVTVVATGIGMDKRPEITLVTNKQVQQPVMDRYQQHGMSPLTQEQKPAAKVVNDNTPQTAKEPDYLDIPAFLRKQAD

NC(=O)c1c(F)ccc(OC(CCNC(=O)c2ccc(O)c(O)c2Cl)c2nc(-c3ccc(C(F)(F)F)cc3)c(Br)o2)c1F (stereo not shown) [RUP4]
Kd: 49 ± 5 µM

From PMC10967458, “A FtsZ Inhibitor That Can Utilize Siderophore-Ferric Iron Uptake Transporter Systems for Activity against Gram-Negative Bacterial Pathogens” (Antibiotics, 2024)
